# Counter-ions that a name gives are not always drawn. Like-named read-outs stand apart in the source and are kept apart here.
# Key:
# [1] = system: U251 cells; test: In-vitro cell proliferation assay (SRB), U251 cells; type: cell-based; settings: Homo sapiens, U-251, 72 hours
# Description: After overnight incubation at 37° C. and 5% CO2, the compound titrations were performed in a separate dilution plate by serially diluting the compounds in DMSO to make a 1000× stock. The compounds were then further diluted to 10× final concentration in culture media, whereupon 20 μL of each dilution was added to the plated cells with controls (e.g. DMSO and blank) to make a final volume of 5 200 μL. The final DMSO concentration in each well was 0.1%. The plates were then incubated for 72 hours at 37° C. in a 5% CO2 incubator. The number of viable cells was then assessed using sulforhodamine B (SRB) assay. Cells were fixed at 4° C. for 1 hour with the addition of 50 μL 30% trichloroacetic acid (TCA) to make a final concentration of 6% 10 TCA. The plates were washed four times with H2O and allowed to dry for at least 1 hour, whereupon 100 μL of a 4% SRB in 1% acetic acid solution was added to each well and incubated at room temperature for at least 30 minutes. The plates were then washed three times with 1% acetic acid, dried, and treated with 100 μL of 10 mM Tris-Base solution. The plates were then read in a microplate reader at an absorbance of 570 nm. 15 Background was generated on a separate plate with media only. Method for Determining % Inhibition First, the signals from the background plate are averaged, then the background was subtracted from the test plates.
# [2] = molecular target: T1, NAMPT (Homo sapiens, UniProt P43490); test: Biochemical inhibition assay: NAMPT enzymatic reaction, NMN quantified by mass spectrometry; settings: read-out: Biochem IC50
# T1 construct: His tag; host or cells: E. coli
# How it was run: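 Inhibition of E. coli-expressed His-tagged human NAMPT, measured as NMN formation by mass spectrometry after a 30 min room-temperature reaction containing 1 μM NAM, 100 μM PRPP and 2.5 mM ATP.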
# [3] = system: A2780 cells; test: In-vitro cell proliferation assay (SRB), A2780 cells; type: cell-based; settings: Homo sapiens, A2780, 72 h, A2780 cells, 72 hours, read-out: A2780 IC50
# How it was run: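 Read-out is SRB absorbance at 570 nm on TCA-fixed cells after 72 hours of compound treatment at 37° C. in 5% CO2. Background from a media-only plate is subtracted, and % inhibition is interpolated between two tested concentrations.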
# T1 sequence (P43490 whole entry): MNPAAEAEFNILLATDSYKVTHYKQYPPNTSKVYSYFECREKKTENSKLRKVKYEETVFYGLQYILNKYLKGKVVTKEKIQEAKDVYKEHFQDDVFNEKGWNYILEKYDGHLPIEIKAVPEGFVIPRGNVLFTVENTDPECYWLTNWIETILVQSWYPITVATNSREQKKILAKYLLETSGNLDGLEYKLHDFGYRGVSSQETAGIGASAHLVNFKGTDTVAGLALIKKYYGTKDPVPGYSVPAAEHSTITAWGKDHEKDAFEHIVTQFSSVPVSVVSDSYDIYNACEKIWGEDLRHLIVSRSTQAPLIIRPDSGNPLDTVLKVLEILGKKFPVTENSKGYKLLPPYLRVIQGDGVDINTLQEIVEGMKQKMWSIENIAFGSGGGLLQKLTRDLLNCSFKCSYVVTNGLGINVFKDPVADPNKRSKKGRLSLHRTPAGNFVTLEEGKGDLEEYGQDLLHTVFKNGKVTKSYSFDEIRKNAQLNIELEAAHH
SMILES,IC50 ([2]; NAMPT enzymatic reaction) [nM],IC50 ([3]; SRB) [nM],IC50 ([2]; NAMPT enzymatic assay) [nM],also measured
"O=C(NCc1ccc(S(=O)(=O)c2ccccc2)cc1)c1cn2ccnc2cn1 [N-{[4-(benzenesulfonyl)phenyl]methyl}imidazo[1,2-alpyrazinc-6-carboxamide]",,,,IC50 [1]: > 2000 nM
"O=C(NCc1ccc(S(=O)(=O)c2ccccc2)cc1)c1cc2ncccc2s1 [N-{[4-(benzenesulfonyl)phenyl]methyl}thieno[3,2-b]pyridine-2-carboxamide]",,,,IC50 [1]: > 2000 nM
"NC1CCN(S(=O)(=O)c2ccc(CNC(=O)c3cc4ccncc4s3)cc2)C1 (stereo not drawn) [N-{[4-(3-aminopyrrolidine-1-sulfonyl)phenyl]methyl}thieno[2,3-c]pyridine-2-carboxamide hydrochloride]",,,,IC50 [1]: 310 nM
"O=C(NCc1ccc(S(=O)(=O)c2ccccc2)cc1)c1cc2ncccc2o1 [N-{[4-(benzenesulfonyl)phenyl]methyl}furo[3,2-b]pyridine-2-carboxamide]",,,,IC50 [1]: 545 nM
"NC1CCN(S(=O)(=O)c2ccc(CNC(=O)c3cc4ccncc4o3)cc2)C1 (stereo not drawn) [N-{[4-(3-aminopyrrolidine-1-sulfonyl)phenyl]methyl}furo[2,3-c]pyridine-2-carboxamide hydrochloride]",,,,IC50 [1]: 1850 nM
"O=C(NCc1ccc(S(=O)(=O)N2CCNCC2)cc1)c1ccc2nccn2c1 [N-{[4-(piperazine-1-sulfonyl)phenyl]methyl}imidazo[1,2-a]pyridine-6-carboxamide]",,,,IC50 [1]: 556 nM
"O=C(NCc1ccc(S(=O)(=O)c2ccccc2)cn1)c1cc2cnccc2[nH]1 [N-{[5-(benzenesulfonyl)pyridin-2-yl]methyl}-1H-pyrrolo[3,2-c]pyridine-2-carboxamide]",,,,IC50 [1]: 35 nM
"O=C(NCc1ccc([S+]([O-])c2cc(F)cc(F)c2)cc1)c1ccc2nccn2c1 (stereo not drawn) [N-({4-[(3,5-difluorobenzene)sulfinyl]phenyl}methyl)imidazo[1,2-a]pyridine-6-carboxamide]",,,,IC50 [1]: 6.6 nM
"O=C(NCc1ccc(S(=O)(=O)N2CCNCC2)cc1)c1cc2ccncc2s1 [N-{[4-(pipcrazine-1-sulfonyl)phenyl]methyl}thieno[2,3-c]pyridine-2-carboxamide]",,,,IC50 [1]: 405 nM
"O=C(NCc1ccc(S(=O)(=O)c2ccccc2)nc1)c1cc2cnccc2[nH]1 [N-{[6-(benzenesulfonyl)pyridin-3-yl]methyl}-1H-pyrrolo[3,2-c]pyridine-2-carboxamide]",,,,IC50 [1]: > 2000 nM
"O=C(NCc1ccc(S(=O)(=O)c2ccccc2)cc1)c1ccc2cncn2c1 [N-{[4-(benzenesulfonyl)phenyl]methyl}imidazo[1,5-alpyridine-6-carboxamide]",,,,IC50 [1]: > 2000 nM
"CCc1ccccc1S(=O)(=O)c1ccc(CNC(=O)c2cc3ccncc3o2)cc1 [N-({4-[(2-ethylbenzene)sulfonyl]phenyl}methyl)furo[2,3-c]pyridine-2-carboxamide]",5.4,12.9,,
O=C(NCc1ccc(S(=O)(=O)c2ccccc2)cc1)c1cc(-c2ccccn2)n[nH]1 [N-{[4-(benzenesulfonyl)phenyl]methyl}-3-(pyridin-2-yl)-1H-pyrazole-5-carboxamide],7430,,,IC50 ([3]; SRB assay): 23400 nM
Cc1cc(S(=O)(=O)c2ccc(CNC(=O)c3cc4cnccc4[nH]3)cc2)c(C)cc1F,51.4,12.8,,
"O=C(NCc1ccc(S(=O)(=O)c2ccc3ncccc3c2)cc1)c1cnc2nccn2c1 [N-{[4-(quinoline-6-sulfonyl)phenyl]methyl}imidazo[1,2-a]pyrimidine-6-carboxamide]",,5.6,3.3,
CCCOc1ccc(S(=O)(=O)c2ccc(CNC(=O)c3cc4ccncc4o3)cc2)cc1Cl,4.9,11.9,,
"O=C(NCc1ccc(S(=O)(=O)c2ccc(Cl)cc2)cc1)c1cc2ccncc2o1 [N-({4-[(4-chlorobenzene)sulfonyl]phenyl}methyl)furo[2,3-c]pyridine-2-carboxamide]",4.9,14.2,,
COc1cc(C)c(S(=O)(=O)c2ccc(CNC(=O)c3cc4ccncc4o3)cc2)cc1C,12.3,12.8,,
CC(C)COc1ccc(S(=O)(=O)c2ccc(CNC(=O)c3cc4ccncc4s3)cc2)cc1,,10.3,4,

SMILES,IC50 ([2]; NAMPT enzymatic reaction) [nM],IC50 ([3]; SRB) [nM],IC50 ([2]; NAMPT enzymatic assay) [nM],also measured
O=C(NCc1ccc(S(=O)(=O)c2ccc(OC(F)(F)F)c(F)c2)cc1)c1ccc2nccn2c1,,6.3,8.4,
"Cn1ncc2c(S(=O)(=O)c3ccc(CNC(=O)c4cc5ccncc5s4)cc3)cccc21 [N-{[4-(1-methyl-1H-indazole-4-sulfonyl)phenyl]methyl}thieno[2,3-c]pyridine-2-carboxamide]",,0.8,1.1,
O=C(NCc1ccc(S(=O)(=O)c2ccc(OC(F)(F)F)c(F)c2)cc1)c1cnc2nccn2c1,,11.8,4,
"O=C(NCc1ccc(S(=O)(=O)c2cccnc2C(F)(F)F)cc1)c1cc2ccncc2o1 [N-({4-[2-(trifluoromethyl)pyridine-3-sulfonyl]phenyl}methyl)furo[2,3-c]pyridine-2-carboxamide]",,27.9,30.4,
"O=C(NCc1ccc(S(=O)(=O)c2cnc3n2CCCCC3)cc1)c1cc2ccncc2o1 [N-[(4-{5H,6H,7H,8H,9H-imidazo[1,2-a]azepine-3-sulfonyl}phenyl)methyl]furo[2,3-c]pyridine-2-carboxamide]",,5.7,6,
COc1cccc(S(=O)(=O)c2ccc(CNC(=O)c3cnc4[nH]ncc4c3)cc2)c1F,8.6,56.3,,
Cc1ccc(Cl)c(S(=O)(=O)c2ccc(CNC(=O)c3cc4cnccc4[nH]3)cc2)c1,18.8,9.1,,
O=C(NCc1ccc(S(=O)(=O)c2ccc(Cl)cc2C(F)(F)F)cc1)c1cnc2nccn2c1,,68.4,7.9,
COc1ccc(Cl)c(S(=O)(=O)c2ccc(CNC(=O)c3cc4cnccc4[nH]3)cc2)c1,11,9.7,,
CCOCc1ccccc1S(=O)(=O)c1ccc(CNC(=O)c2cc3ccncc3o2)cc1,,26,13.3,
"CN(C)C(=O)c1ccc(S(=O)(=O)c2ccc(CNC(=O)c3cc4cnccc4[nH]3)cc2)cc1 [N-[(4-{[4-(dimethylcarbamoyl)benzene]sulfonyl}phenyl)methyl]-1H-pyrrolo[3,2-c]pyridine-2-carboxamide]",27,,,IC50 ([3]; SRB assay): 14 nM
"O=C(NCc1cccc(S(=O)(=O)c2ccccc2)c1)c1cc2cnccc2[nH]1 [N-{[3-(benzenesulfonyl)phenyl]methyl}-1H-pyrrolo[3,2-c]pyridine-2-carboxamide]",> 30000,,,IC50 ([3]; SRB assay): > 30000 nM
"Cc1cc(C)c(S(=O)(=O)c2ccc(CNC(=O)c3cc4ccncc4s3)cc2)cc1C [N-({4-[(2,4,5-trimethylbenzene)sulfonyl]phenyl}methyl)thieno[2,3-c]pyridine-2-carboxamide]",,8.1,8,
"Cc1ccc(S(=O)(=O)c2ccc(CNC(=O)c3cc4ccncc4s3)cc2)cc1 [N-({4-[(4-methylbenzene)sulfonyl]phenyl}methyl)thieno[2,3-c]pyridine-2-carboxamide]",5,,,IC50 ([3]; SRB assay): 5 nM
"O=C(NCc1ccc(S(=O)(=O)c2ccc(Cl)c(Cl)c2)cc1)c1cnc2[nH]ncc2c1 [N-({4-[(3,4-dichlorobenzene)sulfonyl]phenyl}methyl)-1H-pyrazolo[3,4-b]pyridine-5-carboxamide]",6.7,5.5,,
"CCOc1ccc(NS(=O)(=O)c2ccc(CNC(=O)c3cc4cnccc4[nH]3)cc2)c(F)c1 [N-({4-[(4-ethoxy-2-fluorophenyl)sulfamoyl]phenyl}methyl)-1H-pyrrolo[3,2-c]pyridine-2-carboxamide]",154,,,IC50 ([3]; SRB assay): 1600 nM
CC(C)CNC(=O)c1cccc(S(=O)(=O)c2ccc(CNC(=O)c3cnc4nccn4c3)cc2)c1,,45.6,7,
"CC(C)Oc1ccc(Cl)cc1S(=O)(=O)c1ccc(CNC(=O)c2cnc3nccn3c2)cc1 [N-[(4-{[5-chloro-2-(propan-2-yloxy)benzene]sulfonyl}phenyl)methyl]imidazo[1,2-a]pyrimidine-6-carboxamide]",,14.6,4.7,

# From US12336981B2, “Compounds and compositions for the inhibition of NAMPT” (Valo Health, Inc., priority 2010, dated 2025)
